EPA's ToxRefDB 2

Key:
dog = conditions: Carcinogenicity; beagle; Oral; Capsule; dose end: 109 month; group: systemic; systemic / pathology microscopic / urinary bladder / carcinoma + systemic / clinical chemistry / alanine aminotransferase (alt/sgpt) / …
rat [1] = conditions: Developmental neurotoxicity study; long evans; Inhalation; Whole-Body; dose end: 160 PND; group: cannot be grouped; systemic / in life observation / body weight / body weight + developmental / developmental landmark / vaginal opening / vaginal opening + …
rat [2] = conditions: Developmental neurotoxicity study, wistar, Oral, Water, dose end: 45 PND, group: cannot be grouped
rat [3] = conditions: Combined chronic toxicity/carcinogenicity; fischer; Oral; Water; dose end: 103 week; group: systemic; systemic / clinical chemistry / flouride / fluoride + systemic / in life observation / clinical signs / tooth-mottling + systemic / in life …
mouse [4] = conditions: Subchronic oral toxicity in rodents, B6C3F1, Water, dose end: 6 month, group: systemic
rabbit [5] = conditions: Prenatal developmental toxicity study; new zealand white; Oral; Water; dose end: 19 GD; group: maternal; systemic / in life observation / body weight / body weight gain + systemic / in life observation / food consumption / food consumption + …
rat [6] = conditions: Prenatal developmental toxicity study; other; Oral; Water; dose end: 15 GD; group: maternal; systemic / in life observation / body weight / body weight gain + systemic / in life observation / water consumption / water consumption
mouse [7] = conditions: Combined chronic toxicity/carcinogenicity; b6c3f1; Oral; Water; dose end: 103 week; group: systemic; systemic / clinical chemistry / flouride / fluoride + systemic / in life observation / clinical signs / tooth-attrition + systemic / in life…
rat [8] = conditions: Subchronic oral toxicity in rodents, fischer, Water, dose end: 6 month, group: systemic
rat [9] = conditions: Multigenerational reproductive toxicity study, CD CRL:CD-BR, Oral, Water, dose end: 2 generation
rat [10] = conditions: Prenatal developmental toxicity study, other, Oral, Water, dose end: 20 GD, group: maternal
rat [11] = conditions: Sub-acute repeat dose toxicity, fischer, Oral, Water, dose end: 14 day, group: systemic
rat [12] = conditions: Carcinogenicity, sprague dawley, Oral, Feed, dose end: 24 month, group: systemic
mouse [13] = conditions: Sub-acute repeat dose toxicity, b6c3f1, Oral, Water, dose end: 14 day, group: systemic
rat [14] = conditions: Prenatal developmental toxicity study, sprague dawley, Oral, Gavage/Intubation, dose end: 15 GD
rabbit [15] = conditions: Prenatal developmental toxicity study, new zealand white, Oral, Gavage/Intubation, dose end: 19 GD
rat [16] = conditions: Prenatal developmental toxicity study, sprague dawley, Oral, Gavage/Intubation, dose end: 15 GD; remark: listed apart in the source
mouse [17] = conditions: Sub-acute repeat dose toxicity, b6c3f1, Oral, Gavage/Intubation, dose end: 14 day, group: systemic
rat [18] = conditions: Sub-acute dermal toxicity, sprague dawley, Topical, dose end: 28 day, group: systemic
rat [19] = conditions: Subchronic oral toxicity in rodents, fischer, Gavage/Intubation, dose end: 13 week, group: systemic
rat [20] = conditions: Sub-acute repeat dose toxicity, fischer, Oral, Gavage/Intubation, dose end: 14 day, group: systemic
rat [21] = conditions: Multigenerational reproductive toxicity study; sprague dawley; Oral; Gavage/Intubation; dose end: 2 generation; group: parental; systemic / organ weight / liver / nos
mouse [22] = conditions: Subchronic oral toxicity in rodents, b6c3f1, Gavage/Intubation, dose end: 13 week, group: systemic
[23] = systemic / clinical chemistry / dopamine / dopamine + systemic / clinical chemistry / protein / protein + systemic / in life observation / …
[24] = systemic / in life observation / body weight / body weight gain
[25] = systemic / pathology gross / stomach / hemorrhage + systemic / pathology gross / stomach / ulcer + systemic / pathology microscopic / …
[26] = group: offspring, systemic / in life observation / clinical signs / tooth nos
[27] = group: parental, systemic / in life observation / water consumption / water consumption + systemic / pathology microscopic / stomach / hyperkeratosis + …
[28] = systemic / in life observation / body weight / body weight gain + systemic / in life observation / food consumption / food consumption + …
[29] = systemic / in life observation / body weight / body weight
[30] = systemic / in life observation / body weight / body weight + systemic / in life observation / clinical signs / dehydration + systemic / in …
[31] = systemic / in life observation / clinical signs / tooth-dysplasia + systemic / in life observation / clinical signs / tooth-discolored + …
[32] = systemic / organ weight / [other] / absolute + systemic / organ weight / [other] / relative to body weight + systemic / organ weight / …
[33] = group: developmental, systemic / in life observation / body weight / fetal weight
[34] = group: maternal, systemic / in life observation / body weight / body weight gain + systemic / in life observation / food consumption / food consumption
[35] = group: maternal, systemic / in life observation / body weight / body weight gain + systemic / in life observation / food consumption / food consumption + …
[36] = group: developmental, developmental / developmental malformation / bone / absent + developmental / developmental malformation / bone / malpositioned + …
[37] = group: developmental, developmental / developmental malformation / bone / supernumerary + systemic / in life observation / body weight / fetal weight
[38] = group: maternal, systemic / in life observation / clinical signs / body surface staining + systemic / in life observation / clinical signs / salivation + …
[39] = systemic / in life observation / body weight / body weight + systemic / in life observation / clinical signs / fur (altered appearance) + …
[40] = systemic / in life observation / body weight / body weight gain + systemic / in life observation / clinical signs / erythema + systemic / in…
[41] = systemic / in life observation / clinical signs / erythema + systemic / pathology microscopic / skin / edema + systemic / in life …
[42] = systemic / in life observation / body weight / body weight + systemic / in life observation / clinical signs / defecation (diarrhea)
[43] = systemic / pathology microscopic / liver / degeneration
[44] = systemic / pathology microscopic / liver / degeneration + systemic / in life observation / body weight / body weight + systemic / in life …

Nc1ccc2ccccc2c1 [2-Naphthylamine]
LEL (dog): 18.4 mg/kg/day | LOAEL (dog): > 18.4 mg/kg/day | NEL (dog): < 18.4 mg/kg/day | NOAEL (dog): ≥ 18.4 mg/kg/day

CO [Methanol]
LEL (rat [1]): 6110 mg/kg/day | LOAEL (rat [1]): > 6110 mg/kg/day | NEL (rat [1]): < 6110 mg/kg/day | NOAEL (rat [1]): ≥ 6110 mg/kg/day | LOAEL (rat [2]; [23]): > 2000 mg/kg/day | NEL (rat [2]; [23]): 500 mg/kg/day | NOAEL (rat [2]; [23]): ≥ 2000 mg/kg/day | LEL (rat [2]; systemic / clinical chemistry / protein / protein + systemic / clinical chemistry / dopamine / dopamine + systemic / in life observation / …): 1000 mg/kg/day

[F-].[Na+] [Sodium fluoride]
LEL (rat [3]): 1.3 mg/kg/day | LOAEL (rat [3]): 1.3 mg/kg/day | NEL (rat [3]): < 1.3 mg/kg/day | NOAEL (rat [3]): < 1.3 mg/kg/day | LOAEL (mouse [4]; [24]): 30 mg/kg/day | NOAEL (mouse [4]; systemic / in life observation / body weight / body weight gain + systemic / in life observation / clinical signs / [other] + systemic / in …): 15 mg/kg/day | NEL (mouse [4]; systemic / in life observation / body weight / body weight gain + systemic / pathology microscopic / bone / proliferation + systemic / in …): 1.5 mg/kg/day | LEL (mouse [4]; systemic / pathology microscopic / bone / proliferation): 7.5 mg/kg/day | LEL (rabbit [5]): 29 mg/kg/day | LOAEL (rabbit [5]): > 29 mg/kg/day | NEL (rabbit [5]): 18 mg/kg/day | NOAEL (rabbit [5]): ≥ 29 mg/kg/day | LEL (rat [6]): 27 mg/kg/day | LOAEL (rat [6]): > 27 mg/kg/day | NEL (rat [6]): 18 mg/kg/day | NOAEL (rat [6]): ≥ 27 mg/kg/day | LEL (mouse [7]): 2.4 mg/kg/day | LOAEL (mouse [7]): 2.4 mg/kg/day | NEL (mouse [7]): < 2.4 mg/kg/day | NOAEL (mouse [7]): < 2.4 mg/kg/day | LOAEL (rat [8]; [25]): 15 mg/kg/day | NEL (rat [8]; [25]): 1.5 mg/kg/day | NOAEL (rat [8]; [25]): 5 mg/kg/day | LEL (rat [8]; systemic / pathology microscopic / stomach / hyperplasia): 5 mg/kg/day | LEL (rat [9]; [26]): 12.5 mg/kg/day | LOAEL (rat [9]; [26]): > 12.5 mg/kg/day | NEL (rat [9]; [26]): 8.75 mg/kg/day | NOAEL (rat [9]; [26]): ≥ 12.5 mg/kg/day | LOAEL (rat [9]; [27]): > 12.5 mg/kg/day | NEL (rat [9]; [27]): 1.25 mg/kg/day | NOAEL (rat [9]; [27]): ≥ 12.5 mg/kg/day | LEL (rat [9]; group: parental, systemic / pathology microscopic / stomach / hyperkeratosis + systemic / in life observation / water consumption / water consumption): 5 mg/kg/day | LOAEL (rat [10]; [28]): > 25.1 mg/kg/day | NEL (rat [10]; [28]): 15.6 mg/kg/day | NOAEL (rat [10]; [28]): ≥ 25.1 mg/kg/day | LEL (rat [10]; systemic / in life observation / water consumption / water consumption): 24.7 mg/kg/day | LOAEL (rat [11]; [29]): 5 mg/kg/day | LEL (rat [11]; [30]): 20 mg/kg/day | NEL (rat [11]; [30]): 10 mg/kg/day | NOAEL (rat [11]; [30]): 2.5 mg/kg/day | LEL (rat [12]; [31]): 4 mg/kg/day | NEL (rat [12]; [31]): < 4 mg/kg/day | LOAEL (rat [12]; [32]): > 25 mg/kg/day | NOAEL (rat [12]; [32]): ≥ 25 mg/kg/day | LOAEL (mouse [13]; [29]): 7.5 mg/kg/day | NOAEL (mouse [13]; [29]): < 7.5 mg/kg/day | NEL (mouse [13]; systemic / in life observation / body weight / body weight + systemic / in life observation / water consumption / water consumption): 60 mg/kg/day | LEL (mouse [13]; systemic / in life observation / body weight / body weight + systemic / in life observation / water consumption / water consumption + …): 120 mg/kg/day

O=S(=O)([O-])[O-].OC[P+](CO)(CO)CO.OC[P+](CO)(CO)CO [Tetrakis(hydroxymethyl)phosphonium sulfate]
LEL (rat [14]; [33]): 60 mg/kg/day | LOAEL (rat [14]; [33]): 60 mg/kg/day | NEL (rat [14]; [33]): 30 mg/kg/day | NOAEL (rat [14]; [33]): 30 mg/kg/day | LEL (rat [14]; [34]): 60 mg/kg/day | LOAEL (rat [14]; [34]): 60 mg/kg/day | NEL (rat [14]; [35]): 30 mg/kg/day | NOAEL (rat [14]; [35]): 30 mg/kg/day | LEL (rabbit [15]; [36]): 60 mg/kg/day | LOAEL (rabbit [15]; [36]): 60 mg/kg/day | NEL (rabbit [15]; [36]): 18 mg/kg/day | NOAEL (rabbit [15]; [36]): 18 mg/kg/day | LOAEL (rabbit [15]; [34]): 60 mg/kg/day | LEL (rabbit [15]; [35]): 60 mg/kg/day | NEL (rabbit [15]; [35]): 18 mg/kg/day | NOAEL (rabbit [15]; [35]): 18 mg/kg/day | LEL (rat [16]; [37]): 60 mg/kg/day | LOAEL (rat [16]; [37]): 60 mg/kg/day | NEL (rat [16]; [37]): 30 mg/kg/day | NOAEL (rat [16]; [37]): 30 mg/kg/day | LEL (rat [16]; [38]): 30 mg/kg/day | LOAEL (rat [16]; [38]): 30 mg/kg/day | NEL (rat [16]; [38]): 15 mg/kg/day | NOAEL (rat [16]; [38]): 15 mg/kg/day | LEL (mouse [17]; [29]): 25 mg/kg/day | LOAEL (mouse [17]; [29]): 50 mg/kg/day | NEL (mouse [17]; [39]): 12.5 mg/kg/day | NOAEL (mouse [17]; [39]): 25 mg/kg/day | LOAEL (rat [18]; [40]): > 500 mg/kg/day | NOAEL (rat [18]; [40]): ≥ 500 mg/kg/day | LEL (rat [18]; [41]): 25 mg/kg/day | NEL (rat [18]; [41]): < 25 mg/kg/day | LEL (rat [19]; [42]): 5 mg/kg/day | NEL (rat [19]; [42]): < 5 mg/kg/day | NOAEL (rat [19]; systemic / in life observation / body weight / body weight + systemic / in life observation / clinical signs / defecation (diarrhea) + …): 20 mg/kg/day | LOAEL (rat [19]; systemic / in life observation / body weight / body weight + systemic / pathology microscopic / liver / degeneration): 40 mg/kg/day | LOAEL (rat [20]; systemic / in life observation / body weight / body weight + systemic / in life observation / body weight / body weight gain): 25 mg/kg/day | NOAEL (rat [20]; systemic / in life observation / body weight / body weight + systemic / in life observation / body weight / body weight gain + systemic / in…): 12.5 mg/kg/day | LEL (rat [20]; [24]): 25 mg/kg/day | NEL (rat [20]; systemic / in life observation / body weight / body weight gain + systemic / in life observation / mortality / mortality): 12.5 mg/kg/day | LEL (rat [21]): 15 mg/kg/day | LOAEL (rat [21]): > 15 mg/kg/day | NEL (rat [21]): 7.5 mg/kg/day | NOAEL (rat [21]): ≥ 15 mg/kg/day | LEL (mouse [22]; [43]): 20 mg/kg/day | LOAEL (mouse [22]; [43]): 20 mg/kg/day | NEL (mouse [22]; [44]): 10 mg/kg/day | NOAEL (mouse [22]; [44]): 10 mg/kg/day
